PubChem BioAssay (NCI)
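48-hour exposure; five concentrations; linearly interpolated endpoints. GI50 = concentration required for 50% inhibition of growth. Definition used: TGI = concentration required for complete inhibition of growth.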

What was measured:
Experiment in all cases: NCI anticancer screen, dose series, 48 h
[1] = tested on: HL-60(TB) leukemia
[2] = tested on: KM12 colon
[3] = tested on: LOX IMVI melanoma
[4] = tested on: MCF7 breast
[5] = tested on: NCI-H226 lung
[6] = tested on: OVCAR-8 ovarian
[7] = tested on: SF-539 CNS
[8] = tested on: SK-MEL-5 melanoma
[9] = tested on: SW-620 colon
[10] = tested on: UO-31 renal

## CC[C@]12C=CCN3CCC4(c5cc(N=Nc6ccccc6)c(OC)cc5N(C)[C@H]4[C@@](O)(C(=O)OC)[C@@H]1OC(C)=O)[C@@H]32 (stereo partly specified)
[1]
  TGI: 38.1 µM
[2]
  TGI: 37.7 µM
[3]
  TGI: 33 µM
[4]
  TGI: 34.4 µM
[5]
  TGI: 51.5 µM
[6]
  TGI: 42.2 µM
[7]
  TGI: 48.3 µM
[8]
  TGI: 44.2 µM
[9]
  TGI: 58.7 µM
[10]
  TGI: 29.8 µM

## O=C(O)C(CCc1ccccn1)c1ccccc1 (stereo unspecified)
[1]
  TGI: > 100 µM
[2]
  TGI: > 100 µM
[3]
  TGI: > 100 µM
[4]
  TGI: > 100 µM
[5]
  TGI: > 100 µM
[6]
  TGI: > 100 µM
[7]
  TGI: > 100 µM
[8]
  TGI: > 100 µM
[9]
  TGI: > 100 µM
[10]
  TGI: > 100 µM

## C#CCNC(Cc1cnc[nH]1)C(=O)O (stereo unspecified)
[1]
  TGI: > 100 µM
[2]
  TGI: > 100 µM
[3]
  TGI: > 100 µM
[4]
  TGI: > 100 µM
[5]
  TGI: > 100 µM
[6]
  TGI: > 100 µM
[7]
  TGI: > 100 µM
[8]
  TGI: > 100 µM
[9]
  TGI: > 100 µM
[10]
  TGI: > 100 µM

## Cc1ccc(S(=O)(=O)n2cncc2CO)cc1
[1]
  TGI: > 100 µM
[2]
  TGI: > 100 µM
[3]
  TGI: > 100 µM
[4]
  TGI: > 100 µM
[5]
  TGI: > 100 µM
[6]
  TGI: > 100 µM
[7]
  TGI: > 100 µM
[8]
  TGI: > 100 µM
[9]
  TGI: > 100 µM
[10]
  TGI: > 100 µM

## Cc1csc2c1C(=O)c1ccsc1C2=O
[1]
  TGI: > 30.1 µM
[2]
  TGI: 11 µM
[3]
  TGI: 3.37 µM
[4]
  TGI: 2.98 µM
[5]
  TGI: 23.4 µM
[6]
  TGI: 11.3 µM
[7]
  TGI: 3.93 µM
[8]
  TGI: 1.82 µM
[9]
  TGI: 5.31 µM
[10]
  TGI: 8.85 µM

## Cc1cc(S(=O)(=O)Nc2nnc3c(C(F)(F)F)cc(Cl)cn23)c(S)cc1Cl
[1]
  TGI: > 100 µM
[2]
  TGI: > 100 µM
[3]
  TGI: > 100 µM
[4]
  TGI: > 100 µM
[5]
  TGI: > 100 µM
[6]
  TGI: > 100 µM
[7]
  TGI: > 100 µM
[8]
  TGI: > 100 µM
[9]
  TGI: > 100 µM
[10]
  TGI: > 100 µM

## OCC1OC(n2cnc3cccnc32)CC1O (stereo unspecified)
[1]
  TGI: > 100 µM
[2]
  TGI: > 100 µM
[3]
  TGI: > 100 µM
[4]
  TGI: > 100 µM
[5]
  TGI: > 100 µM
[6]
  TGI: > 100 µM
[7]
  TGI: > 100 µM
[8]
  TGI: > 100 µM
[9]
  TGI: > 100 µM
[10]
  TGI: > 100 µM

## Nc1nc(Cl)cc(N=Nc2ccccc2)n1
[1]
  TGI: 75 µM
[2]
  TGI: > 100 µM
[3]
  TGI: 67 µM
[4]
  TGI: > 100 µM
[5]
  TGI: > 100 µM
[6]
  TGI: 97.6 µM
[7]
  TGI: > 100 µM
[8]
  TGI: 40 µM
[9]
  TGI: > 100 µM
[10]
  TGI: > 100 µM

## C/C(=N\NC(N)=O)C(CN1CCCCC1)C(c1ccccc1)c1c(O)c2ccccc2oc1=O (stereo unspecified)
[1]
  TGI: > 72.9 µM
[2]
  TGI: > 100 µM
[3]
  TGI: > 100 µM
[4]
  GI50: > 100 µM
  TGI: > 100 µM
[5]
  TGI: > 100 µM
[6]
  TGI: > 100 µM
[7]
  TGI: > 100 µM
[8]
  TGI: > 100 µM
[9]
  TGI: > 100 µM
[10]
  TGI: > 100 µM

## O=C(O)/C=C(/CC(=O)O)C(=O)O
[1]
  TGI: 42.9 µM
[2]
  TGI: 61.2 µM
[3]
  TGI: 47.1 µM
[4]
  TGI: 39.3 µM
[5]
  TGI: 45.6 µM
[6]
  TGI: 46.6 µM
[7]
  TGI: 26 µM
[8]
  TGI: 44.1 µM
[9]
  TGI: 39.8 µM
[10]
  TGI: 33.7 µM

## Cc1ccc(C(=O)N(C(C)C)C(C)C)cc1N=NN(C)C
[1]
  TGI: > 100 µM
[2]
  TGI: > 100 µM
[3]
  TGI: > 31.6 µM
[4]
  TGI: > 100 µM
[5]
  TGI: > 100 µM
[6]
  TGI: > 100 µM
[7]
  TGI: > 100 µM
[8]
  TGI: > 100 µM
[9]
  TGI: > 100 µM
[10]
  TGI: > 100 µM

## CCN(CC)CCO/N=C1\CC[C@H]2[C@@H]3CC=C4C[C@@H](O)CC[C@]4(C)[C@H]3CC[C@]12C
[1]
  TGI: 44.5 µM
[2]
  TGI: 38.5 µM
[3]
  TGI: 31.1 µM
[4]
  TGI: 31.6 µM
[5]
  TGI: 33.1 µM
[6]
  TGI: 64.6 µM
[7]
  TGI: 27.6 µM
[8]
  TGI: 25.4 µM
[9]
  TGI: 30.4 µM
[10]
  TGI: 32.1 µM

## CC1(C)COC(c2cccc(C3=NC(C)(C)CO3)c2Br)=N1
[1]
  TGI: > 100 µM
[2]
  TGI: > 100 µM
[3]
  TGI: > 100 µM
[4]
  TGI: > 100 µM
[5]
  TGI: > 100 µM
[6]
  TGI: > 100 µM
[7]
  TGI: > 100 µM
[8]
  TGI: > 100 µM
[9]
  TGI: > 100 µM
[10]
  TGI: > 100 µM
